Assay: Dissolution of compound A in equimolar 0.2 mol/L sodium hydroxide and appearance of aqueous preparations (Examples 1 and 2)
Format: physicochemical
Experimental: The resultant solutions (1 mL and 2 mL) were filled into vials to prepare injectable compositions of formulations 1 and 2 in Table 1.
In accordance with the formulation of preparation solution in Table 2, the compound A was dissolved in the equivalent amount (in molar ratio) of a sodium hydroxide aqueous solution (0.2 mol/L), and then mannitol, N-methylglucamine and a water for injection were added thereto to dissolve followed by sterile filtration with a filter (0.22 μm) made from Durapola (manufactured by Nihon Millipore Ltd.) to prepare a preparation solution for injectable composition A.

For `Cc1c(OCC(F)(F)F)ccnc1C[S+]([O-])c1nc2ccccc2[nH]1` (centres unmarked) [Compound A, 2-[[[3-methyl-4-(2,2,2-trifluoroethoxy)-2-pyridinyl]methyl]sulfinyl]-1H-benzimidazole], the “Appearance of resultant solution” value (compound A in equimolar sodium hydroxide aqueous solution (0.2 mol/L)) was “transparent and colorless” and the “Dissolution of compound A” value (in the equivalent amount (in molar ratio) of a sodium hydroxide aqueous solution (0.2 mol/L)) was “quickly dissolved”.

— patent US7396841B2, “Injections” (Takeda Pharmaceutical Company Limited, priority 2000, dated 2008)
